In brackets after ≈: the same amount, converted by molar mass. Read-outs that look alike come from different tables or passages of the source.
How the values were obtained:
Assay in all cases: standard microplate test in BHI Agar
Format in all cases: cell-based
P. vulgaris UC 93 = details: Proteus vulgaris, UC93, 20 h
Summary of the method: (§1)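 End points are read after 20 hours of incubation at 37°. The medium is Brain Heart Infusion agar in a standard microplate format. Compounds are tested at 1 mg./ml. and at dilutions of that level.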

S. pneumoniae I UC 41 = details: Streptococcus pneumoniae, UC41, 20 h
Summary of the method: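 A standard microplate assay in BHI agar used compound at 1 mg./ml. and dilutions, with end points read at 20 h (37°).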

S. pyogenes UC 152 = details: Streptococcus pyogenes, UC152, 20 h
Summary of the method: as §1

[1] = read-out: Minimal Inhibitory Concentration
[2] = read-out: Minimum Inhibitory Concentration

`NC[C@H]1O[C@H](O[C@H]2[C@H](O)[C@@H](O)[C@H](N)C[C@@H]2N)[C@H](N)[C@@H](O)[C@@H]1O` [Neamine] showed an MIC (P. vulgaris UC 93; [1]) of 62.5 µg/mL (≈ 194 µM), an MIC (P. vulgaris UC 93; [2]) of 62.5 µg/mL (≈ 194 µM) and an MIC (S. pneumoniae I UC 41; [1]) of 62.5 µg/mL (≈ 194 µM). It also gave an MIC (S. pneumoniae I UC 41; [2]) of 62.5 µg/mL (≈ 194 µM), an MIC (S. pyogenes UC 152; [1]) of 7.8 µg/mL (≈ 24.2 µM) and an MIC (S. pyogenes UC 152; [2]) of 7.8 µg/mL (≈ 24.2 µM).

From patent US4169197A, “6-Deoxyneamines aminoglycoside compounds” (The Upjohn Company, priority 1978, dated 1979)
